Measured values as given in article PMC4073285, “Exploring the molecular mechanisms of electron shuttling across the microbe/metal space” (Frontiers in Microbiology, 2014).

Tests used:
[1] = biological target: T1, OmcA (Shewanella oneidensis, UniProt Q8EG33); test: 1H NMR titration (heme methyl shifts); type: binding; conditions: oxidized protein; 20 mM potassium phosphate pH 7.6, 100 mM KCl, 2H2O, 25 °C
T1 construct: recombinant soluble decaheme cytochrome expressed in S. oneidensis MR-1 from pBAD202/D-TOPO; stop codon after the gene removes V5 and His6 tags; C-terminus encoded by primer ...AIDGSTR N not altered (ends MEAHGN)

[2] = biological target: T2, UndA (Shewanella sp. HRCR_06, UniProt F8UWD6); test: 1H NMR titration (heme methyl shifts); type: binding; conditions: oxidized protein; 20 mM potassium phosphate pH 7.6, 100 mM KCl, 2H2O, 25 °C
T2 construct: recombinant soluble undecaheme cytochrome from E. coli JM109(DE3) periplasm with pEC86; stop codon after the gene removes V5 and His6 tags; C-terminus encoded by primer GVDKVHPVKY

[3] = biological target: T3, MtrC (Shewanella oneidensis, UniProt Q8EG34); test: 1H NMR titration (heme methyl shifts); type: binding; conditions: oxidized protein; 20 mM potassium phosphate pH 7.6, 100 mM KCl, 2H2O, 25 °C
T3 construct: recombinant soluble decaheme cytochrome from E. coli JM109(DE3) periplasm with pEC86; stop codon after the gene removes V5 and His6 tags; C-terminus encoded by primer HTKVKM

[4] = biological target: T3, MtrC; test: […] NMR titration; type: binding; conditions: read-out: βd
[5] = biological target: T1, OmcA; test: […] NMR titration; type: binding; conditions: read-out: βd
[6] = biological target: T4, MtrF (Shewanella oneidensis, UniProt Q8EG32); test: stopped-flow oxidation of reduced cytochrome at […] nm; type: biochemical; conditions: electron acceptor; 11 μM PMS, 0.31 μM protein, pH 7.6, 25 °C, anaerobic
T4 construct: recombinant soluble decaheme cytochrome expressed in S. oneidensis MR-1; stop codon after the gene removes V5 and His6 tags
T4 sequence (Q8EG32 24-639): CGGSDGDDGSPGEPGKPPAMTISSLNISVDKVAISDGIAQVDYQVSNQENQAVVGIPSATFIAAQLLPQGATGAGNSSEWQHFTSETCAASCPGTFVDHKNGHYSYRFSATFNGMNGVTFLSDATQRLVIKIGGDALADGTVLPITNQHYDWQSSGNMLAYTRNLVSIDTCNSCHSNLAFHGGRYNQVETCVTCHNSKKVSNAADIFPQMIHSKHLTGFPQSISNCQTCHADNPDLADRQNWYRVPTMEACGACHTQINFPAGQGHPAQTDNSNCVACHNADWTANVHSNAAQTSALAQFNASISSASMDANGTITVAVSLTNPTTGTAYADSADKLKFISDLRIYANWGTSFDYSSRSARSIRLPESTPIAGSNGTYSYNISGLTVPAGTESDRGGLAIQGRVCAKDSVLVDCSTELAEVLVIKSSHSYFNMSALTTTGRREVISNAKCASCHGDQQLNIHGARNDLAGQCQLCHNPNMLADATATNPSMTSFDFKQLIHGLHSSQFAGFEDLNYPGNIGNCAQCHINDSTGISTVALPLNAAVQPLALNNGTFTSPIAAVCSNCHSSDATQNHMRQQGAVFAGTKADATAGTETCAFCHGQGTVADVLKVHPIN

T1 sequence (Q8EG33 entry or part of it): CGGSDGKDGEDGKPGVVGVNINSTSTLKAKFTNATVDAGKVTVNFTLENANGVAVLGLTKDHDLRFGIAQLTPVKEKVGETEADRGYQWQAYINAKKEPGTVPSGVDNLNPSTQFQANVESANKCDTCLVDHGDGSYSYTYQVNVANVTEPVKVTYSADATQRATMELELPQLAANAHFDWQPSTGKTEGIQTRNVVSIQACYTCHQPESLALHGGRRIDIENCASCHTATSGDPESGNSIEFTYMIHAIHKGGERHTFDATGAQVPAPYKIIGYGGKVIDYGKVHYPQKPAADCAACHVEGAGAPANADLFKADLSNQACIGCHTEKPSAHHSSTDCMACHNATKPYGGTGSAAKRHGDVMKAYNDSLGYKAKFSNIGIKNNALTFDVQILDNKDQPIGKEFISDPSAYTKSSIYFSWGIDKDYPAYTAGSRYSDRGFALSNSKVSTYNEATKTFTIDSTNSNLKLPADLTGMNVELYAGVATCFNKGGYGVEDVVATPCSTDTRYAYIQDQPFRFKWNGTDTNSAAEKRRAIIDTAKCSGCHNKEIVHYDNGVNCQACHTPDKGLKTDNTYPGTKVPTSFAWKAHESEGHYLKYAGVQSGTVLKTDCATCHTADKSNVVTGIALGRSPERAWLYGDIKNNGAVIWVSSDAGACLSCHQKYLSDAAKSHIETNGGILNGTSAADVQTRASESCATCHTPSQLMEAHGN
T3 sequence (Q8EG34 entry or part of it): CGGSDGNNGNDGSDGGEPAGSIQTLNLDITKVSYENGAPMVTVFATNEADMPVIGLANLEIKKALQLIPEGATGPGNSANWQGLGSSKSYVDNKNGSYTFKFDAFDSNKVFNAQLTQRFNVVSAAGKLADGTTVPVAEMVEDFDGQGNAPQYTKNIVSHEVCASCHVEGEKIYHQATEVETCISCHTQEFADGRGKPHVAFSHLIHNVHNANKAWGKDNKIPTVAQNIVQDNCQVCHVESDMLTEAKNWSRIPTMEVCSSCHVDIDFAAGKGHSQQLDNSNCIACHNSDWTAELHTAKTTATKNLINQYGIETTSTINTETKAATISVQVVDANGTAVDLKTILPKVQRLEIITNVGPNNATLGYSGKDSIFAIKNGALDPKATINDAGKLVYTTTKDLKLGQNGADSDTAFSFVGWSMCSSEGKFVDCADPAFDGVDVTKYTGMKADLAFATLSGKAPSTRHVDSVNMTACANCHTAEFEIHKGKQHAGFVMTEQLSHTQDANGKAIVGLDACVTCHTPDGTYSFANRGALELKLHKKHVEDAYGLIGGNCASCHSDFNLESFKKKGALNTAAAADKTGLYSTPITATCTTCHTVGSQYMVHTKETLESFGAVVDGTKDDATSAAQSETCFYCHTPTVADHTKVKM
T2 sequence (F8UWD6 entry or part of it): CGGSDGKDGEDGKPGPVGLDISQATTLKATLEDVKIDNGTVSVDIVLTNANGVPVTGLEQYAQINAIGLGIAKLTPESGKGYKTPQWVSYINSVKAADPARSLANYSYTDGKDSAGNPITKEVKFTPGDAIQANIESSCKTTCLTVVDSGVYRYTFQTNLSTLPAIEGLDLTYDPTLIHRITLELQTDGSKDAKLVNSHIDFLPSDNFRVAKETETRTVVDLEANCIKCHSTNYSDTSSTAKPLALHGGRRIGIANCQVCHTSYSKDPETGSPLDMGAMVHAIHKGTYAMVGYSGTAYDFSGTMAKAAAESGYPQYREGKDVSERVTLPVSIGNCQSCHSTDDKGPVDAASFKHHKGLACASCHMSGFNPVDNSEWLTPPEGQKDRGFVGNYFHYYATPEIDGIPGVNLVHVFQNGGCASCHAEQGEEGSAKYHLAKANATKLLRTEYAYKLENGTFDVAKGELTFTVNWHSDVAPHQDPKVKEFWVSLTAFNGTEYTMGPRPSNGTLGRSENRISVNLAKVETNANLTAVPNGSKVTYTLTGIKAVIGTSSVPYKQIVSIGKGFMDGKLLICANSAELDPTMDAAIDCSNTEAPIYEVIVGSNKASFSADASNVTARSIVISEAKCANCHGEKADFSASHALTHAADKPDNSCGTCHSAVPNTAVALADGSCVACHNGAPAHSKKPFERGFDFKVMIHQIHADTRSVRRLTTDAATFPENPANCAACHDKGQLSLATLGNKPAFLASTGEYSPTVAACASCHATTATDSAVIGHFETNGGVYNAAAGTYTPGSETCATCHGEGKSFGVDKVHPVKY

SMILES | 1H NMR titration (heme methyl shifts) [1] | 1H NMR titration (heme methyl shifts) [2] | 1H NMR titration (heme methyl shifts) [3] | Kd [4] [µM] | Kd [5] [µM] | stopped-flow oxidation of reduced cytochrome at 552 nm [6]
O=C1c2ccc(S(=O)(=O)O)cc2C(=O)c2ccc(S(=O)(=O)O)cc21 [AQDS, Anthraquinone 2,6-disulfonate] | the addition of AQDS promoted noticeable spectral changes in OmcA, MtrC, and UndA | the addition of AQDS promoted noticeable spectral changes in OmcA, MtrC, and UndA | the addition of AQDS promoted noticeable spectral changes in OmcA, MtrC, and UndA |  |  | 
Cc1cc2nc3c(=O)[nH]c(=O)nc-3n(C[C@H](O)[C@H](O)[C@H](O)COP(=O)(O)O)c2cc1C [FMN, Flavin mononucleotide] |  |  |  | 255 | 29 | 
C[n+]1c2ccccc2nc2ccccc21 [PMS, Phenazine methosulfate] | RF, FMN, and PMS, only promoted significant changes in the heme signals of OmcA |  | only promoted significant changes in the heme signals of OmcA and MtrC |  |  | PMS oxidized all the cytochromes at a rate too fast to be measured
Cc1cc2nc3c(=O)[nH]c(=O)nc-3n(C[C@H](O)[C@H](O)[C@H](O)CO)c2cc1C [RF, Riboflavin] | RF, FMN, and PMS, only promoted significant changes in the heme signals of OmcA |  | only promoted significant changes in the heme signals of OmcA and MtrC |  |  | 
